Assay [1] deals with HSV-1 acyclovir-resistant mutant strain dlsptk. As to the kind of experiment: Acyclovir-resistant HSV-1 cutaneous infection in immunodeficient nu/nu mice, strain dlsptk. It counts as in vivo, female nu/nu mice. Conditions: oral gavage 100 mg/kg/day, tid for 10 days; strain dlsptk (FIG. 3). The procedure:
(§1) Animals were cutaneously inoculated with 10^7 PFU pf HSV-1 acyclovir resistant mutant viruses. The resulting cutaneous lesions were scored according to a subjective scoring system. The compound of Group 1 (Entry No. 29 in table 1) was administered orally (gavage) in an acidified vehicle (0.033 N aqueous HCl, tid for 10 days). Animals were similarly treated with acyclovir in 0.033 N aqueous HCl or only with the vehicle (0.033 N aqueous HCl). […] The dose-dependent effect of treatment with Entry No. 29 at 25 mg/kg/day (-.diamond-solid.-), 50 mg/kg/day (-.tangle-solidup.-), 75 mg/kg/day (-.quadrature.-), 100 mg/kg/day (-.circle-solid.-) or 125 mg/kg/day (-.box-solid.-), compared to treatment with vehicle alone (-.smallcircle.-), is shown in FIG. 2. The ED50 of Entry No. 29 was about 60 mg/kg/day. Similar experiments were done using the HSV-1 acyclovir-resistant mutant strain dlsptk (FIGS. 3 and 4). […] The dose-dependent effect of treatment with Entry No. 29 at 25 mg/kg/day (-.diamond-solid.-), 50 mg/kg/day (-.tangle-solidup.-), 75 mg/kg/day (-.quadrature.-), 100 mg/kg/day (-.circle-solid.-) or 125 mg/kg/day (-.box-solid.-), compared to treatment with vehicle alone (-.smallcircle.-), is shown in FIG. 4. […]

Assay [2] deals with HSV-1 acyclovir-resistant mutant strain PAA^r 5. As to the kind of experiment: Acyclovir-resistant HSV-1 cutaneous infection in immunodeficient nu/nu mice, strain PAAr 5. The class given is in vivo, female nu/nu mice. The procedure:
as §1

A further assay has as its system HSV-2 HG-52. Description: Mouse genital model, vaginal HSV-2 infection, oral administration. Conditions: Human alphaherpesvirus 2, 3 h, Group 1 Table 1 entries, commencing three hours post infection, read-out: ED50, reduction of viral pathology. The class given is in vivo, Swiss Webster mouse. The procedure:
Antiviral activity for Group 1 compounds was also observed in the mouse genital model of R. W. Sidwell et al., supra. Vaginal HSV-2 infection in the Swiss Webster mouse was initiated by vaginal irritation and instillation of HSV-2 (HSV-2 HG-52, 1×10^7 PFU). Viral pathology was measured as described above.

Here are results for two molecules from US6288091A, “Antiherpes virus compounds and methods for their preparation and use” (Boehringer Ingelheim Ltd., priority 1999, dated 2001).

Usually ED50 stands for the dose at which the effect has come halfway, by size or by number of responders.

On to `Nc1nc2c(ncn2COCCO)c(=O)[nH]1` [acyclovir, reference compound], for which the “effect on cutaneous lesions” value in assay [1] was “no effect on cutaneous lesions”; in assay [2] (oral gavage 100 mg/kg/day, tid for 10 days, strain PAAr 5 (FIG. 1)), “no effect on cutaneous lesions”.

Regarding `Nc1nc(-c2ccc(NC(=O)CN(Cc3ccccc3)C(=O)c3ccncc3)cc2)cs1` [Entry 29], the median effective dose (ED50) is 60 mg/kg with HSV-2 HG-52 and about 60 mg/kg in assay [2] (Human alphaherpesvirus 1, po, 240 h, read-out: ED50, cutaneous lesions).
